Read-outs that look alike come from different tables or passages of the source.
Legend:
Assay in all cases: biochemical
Type in all cases: binding
BtabCSP1 = target: T1, BtabCSP1 (Bemisia tabaci, UniProt D6N3A3)
T1 sequence (D6N3A3 20-126): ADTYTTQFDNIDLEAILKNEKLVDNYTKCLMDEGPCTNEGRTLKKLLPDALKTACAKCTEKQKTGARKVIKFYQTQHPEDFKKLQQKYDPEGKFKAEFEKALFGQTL
Method: (§1) Protein-ligand binding affinity was determined for the three recombinant proteins. Emission fluorescence spectra were recorded on a Jasco FP-6500 Series fluorescence spectrofluorometer. […] Fluorescence was measured using an exciting wavelength of 337 nm. Emission spectrum was recorded between 350 and 500 nm.

BtabCSP2 = target: T2, BtabCSP2 (Bemisia tabaci, UniProt H6UKS9)
T2 sequence (H6UKS9 22-131): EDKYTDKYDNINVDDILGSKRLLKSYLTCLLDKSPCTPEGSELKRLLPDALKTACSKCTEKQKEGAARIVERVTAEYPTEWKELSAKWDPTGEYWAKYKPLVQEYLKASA
Method: as §1

BtabCSP3 = target: T3, BtabCSP3 (Bemisia tabaci, UniProt A0A097GUB5)
T3 sequence (A0A097GUB5 21-138): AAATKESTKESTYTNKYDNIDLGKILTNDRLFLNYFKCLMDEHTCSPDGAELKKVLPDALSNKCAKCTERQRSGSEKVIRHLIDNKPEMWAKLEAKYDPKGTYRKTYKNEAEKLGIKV
Method: as §1

[1] = displacement of 1-NPN, read-out: IC50, BtabCSP1
[2] = u.d. = binding constant not calculated, IC50>100 μM, read-out: BtabCSP1 Ki (u.d.)
[3] = u.d. = binding constant not calculated, IC50>100 μM, read-out: BtabCSP2 Ki (u.d.)
[4] = u.d. = binding constant not calculated, IC50>100 μM, read-out: BtabCSP3 Ki (u.d.)
[5] = BtabCSP1 Ki, competitive binding vs 1-NPN, three replicates ± SD
[6] = competitive binding vs 1-NPN, three replicates ± SD, read-out: BtabCSP1 Ki
[7] = BtabCSP1 Ki (u.d.), u.d. = binding constant not calculated, IC50>100 μM

| Compound | Ki (BtabCSP1; [2]) [µM] | Ki (BtabCSP2; [3]) [µM] | Ki (BtabCSP3; [4]) [µM] | other results |
| --- | --- | --- | --- | --- |
| CCCCCCCC(=O)O [Octanoic acid] | > 100 | > 100 | > 100 | IC50 (BtabCSP1; [1]): 14.6 to 95.1 µM |
| CC(C)=CCC/C(C)=C/CO [Geraniol] | – | – | – | IC50 (BtabCSP1): 14.6 to 95.1 µM; Ki (BtabCSP1; [5]): 39.6 ± 3.01 µM; Ki (BtabCSP2): > 100 µM; Ki (BtabCSP3): > 100 µM |
| CCCCCOC(C)=O [Amyl acetate] | > 100 | > 100 | > 100 | – |
| CCCCCCCO [1-Heptanol] | > 100 | > 100 | > 100 | – |
| CC1=CCC2C(C1)C2(C)C (stereo not drawn) [3-Carene] | > 100 | > 100 | > 100 | – |
| CCCCCCCCCCCCCCC [n-Pentadecane] | > 100 | > 100 | > 100 | – |
| CC/C=C\CCOC(C)=O [(Z)-3-Hexenyl acetate] | > 100 | > 100 | > 100 | – |
| CCCCCCC=O [Heptanal] | > 100 | > 100 | > 100 | – |
| C=C(C)C1CC=C(C)[C@@H](O)C1 (single isomer, unassigned; (-)) [(-)-Carveol] | > 100 | > 100 | > 100 | – |
| c1ccc(Nc2cccc3ccccc23)cc1 [1-NPN] | – | – | – | Kd (BtabCSP1; direct titration, Scatchard plot, read-out: binding constant of 1-NPN to CSP1): 11.7 µM; Kd (BtabCSP2; direct titration, Scatchard plot, read-out: binding constant of 1-NPN to CSP2): 20.8 µM; Kd (BtabCSP3; direct titration, Scatchard plot, read-out: binding constant of 1-NPN to CSP3): 15.3 µM |
| Cc1cccc(C)c1 [m-Xylene] | – | > 100 | > 100 | Ki (BtabCSP1; [6]): 55.5 ± 3.14 µM; IC50 (BtabCSP1; [1]): 14.6 to 95.1 µM |
| CCC/C=C/CO [Trans-2-hexen-1-ol] | – | > 100 | > 100 | Ki (BtabCSP1; [6]): 46.1 ± 1.25 µM; IC50 (BtabCSP1; [1]): 14.6 to 95.1 µM |
| CCCCC(CC)CO (stereo not drawn) [2-Ethyl-hexanol] | > 100 | > 100 | > 100 | – |
| CCC/C=C/COC(=O)CCC [(E)-2-Hexenyl butyrate] | > 100 | > 100 | > 100 | – |
| C=CC(=C)CCC=C(C)C [Myrcene] | > 100 | > 100 | > 100 | IC50 (BtabCSP1; [1]): 14.6 to 95.1 µM |
| CCCCCCCCC=O [Nonanal] | > 100 | > 100 | > 100 | – |
| S(-)-Limonene | – | > 100 | > 100 | Ki (BtabCSP1; [6]): 82.2 ± 3.47 µM |
| CCCCCCCCCCCC=O [Dodecyl aldehyde] | > 100 | > 100 | > 100 | – |
| CCCCCCCCCCCC(=O)O [Lauric acid] | – | > 100 | > 100 | Ki (BtabCSP1; [6]): 35.2 ± 1.42 µM |
| CC(C)=CCC/C(C)=C/CC/C(C)=C/CO [Trans,trans-Farnesol] | > 100 | > 100 | > 100 | – |
| CCCCCCCCCC(=O)O [Decanoic acid] | – | – | – | IC50 (BtabCSP1): 14.6 to 95.1 µM; Ki (BtabCSP1; [7]): > 100 µM; Ki (BtabCSP2): > 100 µM; Ki (BtabCSP3): > 100 µM |
| CCCCCCCCCCC [n-Undecane] | > 100 | > 100 | > 100 | – |
| C=C1CC/C=C(\C)CC[C@@H]2[C@@H]1CC2(C)C [Caryopyllene] | > 100 | > 100 | > 100 | – |
| CC1(C)[C@H]2CC[C@]1(C)C(=O)C2 [(1S)-(-)-Camphor] | – | – | – | Ki (BtabCSP1; [6]): 50.8 ± 3.08 µM |
| CCCCC/C=C\C/C=C\CCCCCCCC(=O)O [Linoleic acid] | – | > 100 | – | Ki (BtabCSP1; [6]): 5.78 ± 0.39 µM; IC50 (BtabCSP1; [1]): 6.7 ± 0.52 µM; IC50 (BtabCSP2; displacement of 1-NPN): > 100 µM; Ki (BtabCSP3; competitive binding vs 1-NPN, three replicates ± SD, read-out: BtabCSP3 Ki): 43.5 ± 2.86 µM; IC50 (BtabCSP3; displacement of 1-NPN): 48.5 ± 3.42 µM |

| Compound | Ki (BtabCSP1; [2]) [µM] | Ki (BtabCSP2; [3]) [µM] | Ki (BtabCSP3; [4]) [µM] | other results |
| --- | --- | --- | --- | --- |
| CCCCCCOC(C)=O [Hexyl acetate] | > 100 | > 100 | > 100 | – |
| COC(=O)c1ccccc1O [Methyl salicylate] | – | > 100 | > 100 | Ki (BtabCSP1; [6]): 60 ± 2.74 µM; IC50 (BtabCSP1; [1]): 14.6 to 95.1 µM |
| CCCCC=O [Valeraldehyde] | > 100 | > 100 | > 100 | – |
| CC12CCC(CC1)C(C)(C)O2 [1,8-Cineole] | > 100 | > 100 | > 100 | – |
| CC(=O)CCC=C(C)C [6-Methyl-5-hepten-2-one] | – | – | – | IC50 (BtabCSP1): 14.6 to 95.1 µM; Ki (BtabCSP1; [7]): > 100 µM; Ki (BtabCSP2): > 100 µM; Ki (BtabCSP3): > 100 µM |
| CC(=O)/C=C/C1=C(C)CCCC1(C)C [β-Ionone] | – | – | – | IC50 (BtabCSP1): 14.6 to 95.1 µM; Ki (BtabCSP1; [5]): 32.1 ± 1.48 µM; Ki (BtabCSP2): > 100 µM; Ki (BtabCSP3): > 100 µM |
| C=CC(C)(O)CC/C=C(\C)CCC=C(C)C (racemic) [(+/-)Nerolidol] | > 100 | > 100 | > 100 | IC50 (BtabCSP1; [1]): 14.6 to 95.1 µM |
| O=C(O)/C=C/c1ccccc1 [Cinnamic acid] | – | > 100 | > 100 | Ki (BtabCSP1; [6]): 75.5 ± 2.29 µM; IC50 (BtabCSP1; [1]): 14.6 to 95.1 µM |
| CC1=CC=C(C(C)C)CC1 [α-Terpinene] | > 100 | > 100 | > 100 | IC50 (BtabCSP1; [1]): 14.6 to 95.1 µM |
| O=Cc1ccccc1 [Benzaldehyde] | – | – | – | Ki (BtabCSP1; [7]): > 100 µM; Ki (BtabCSP2): > 100 µM; Ki (BtabCSP3): > 100 µM |
| CCCCCCCC=O [Octanal] | > 100 | > 100 | > 100 | – |
| CCCCCC [n-Hexane] | – | – | – | Ki (BtabCSP1; BtabCSP1 Ki (u.d.)): > 100 µM; Ki (BtabCSP2): > 100 µM; Ki (BtabCSP3): > 100 µM |
| C=C(C)[C@H]1CC=C(C)CC1 [R(+)-Limonene] | – | > 100 | > 100 | Ki (BtabCSP1; [6]): 47.8 ± 1.56 µM |
| CCC/C=C/C=O [Trans-2-hexenal] | > 100 | > 100 | > 100 | – |
| CCCCCC=O [n-Hexaldehyde] | > 100 | > 100 | > 100 | – |
| CCCCCCCCCCCCC [n-Tridecane] | > 100 | > 100 | > 100 | – |
| C=C1CCC2CC1C2(C)C (stereo not drawn) [β-Pinene] | > 100 | > 100 | > 100 | – |
| CC(=O)c1ccc(C)cc1C [2, 4′-Dimethylacetophenone] | – | – | – | Ki (BtabCSP1; [7]): > 100 µM; Ki (BtabCSP2): > 100 µM; Ki (BtabCSP3): > 100 µM |
| C=CCc1ccc(O)c(OC)c1 [Eugenol] | > 100 | > 100 | > 100 | – |
| CC1=CC[C@@H](C(C)(C)O)CC1 [α-Terpineol] | > 100 | > 100 | > 100 | IC50 (BtabCSP1; [1]): 14.6 to 95.1 µM |
| CC/C=C\CCO [Z3-Hexen-1-ol] | > 100 | > 100 | > 100 | – |
| C=CC(C)=CCC=C(C)C [Ocimene] | > 100 | > 100 | > 100 | – |
| CC1=CCC2CC1C2(C)C (stereo not drawn) [α-Pinene] | > 100 | > 100 | > 100 | – |
| C=CC(=C)CC/C=C(\C)CCC=C(C)C [E-β-Farnesene] | > 100 | > 100 | > 100 | – |
| C=CC(C)(O)CCC=C(C)C (stereo not drawn) [Linalool] | > 100 | > 100 | > 100 | IC50 (BtabCSP1; [1]): 14.6 to 95.1 µM |

— article PMC4864240, “Biotype Characterization, Developmental Profiling, Insecticide Response and Binding Property of Bemisia tabaci Chemosensory Proteins: Role of CSP in Insect Defense” (PLoS ONE, 2016)
